Data: the Kinase Knowledgebase extract (Sharma et al. 2016)

Target: PIK3CG (human) (UniProt P48736)
Test: Inhibition of PIK3CG Kinase Activity

PIK3CG (human), sequence (P48736 whole entry, looked up): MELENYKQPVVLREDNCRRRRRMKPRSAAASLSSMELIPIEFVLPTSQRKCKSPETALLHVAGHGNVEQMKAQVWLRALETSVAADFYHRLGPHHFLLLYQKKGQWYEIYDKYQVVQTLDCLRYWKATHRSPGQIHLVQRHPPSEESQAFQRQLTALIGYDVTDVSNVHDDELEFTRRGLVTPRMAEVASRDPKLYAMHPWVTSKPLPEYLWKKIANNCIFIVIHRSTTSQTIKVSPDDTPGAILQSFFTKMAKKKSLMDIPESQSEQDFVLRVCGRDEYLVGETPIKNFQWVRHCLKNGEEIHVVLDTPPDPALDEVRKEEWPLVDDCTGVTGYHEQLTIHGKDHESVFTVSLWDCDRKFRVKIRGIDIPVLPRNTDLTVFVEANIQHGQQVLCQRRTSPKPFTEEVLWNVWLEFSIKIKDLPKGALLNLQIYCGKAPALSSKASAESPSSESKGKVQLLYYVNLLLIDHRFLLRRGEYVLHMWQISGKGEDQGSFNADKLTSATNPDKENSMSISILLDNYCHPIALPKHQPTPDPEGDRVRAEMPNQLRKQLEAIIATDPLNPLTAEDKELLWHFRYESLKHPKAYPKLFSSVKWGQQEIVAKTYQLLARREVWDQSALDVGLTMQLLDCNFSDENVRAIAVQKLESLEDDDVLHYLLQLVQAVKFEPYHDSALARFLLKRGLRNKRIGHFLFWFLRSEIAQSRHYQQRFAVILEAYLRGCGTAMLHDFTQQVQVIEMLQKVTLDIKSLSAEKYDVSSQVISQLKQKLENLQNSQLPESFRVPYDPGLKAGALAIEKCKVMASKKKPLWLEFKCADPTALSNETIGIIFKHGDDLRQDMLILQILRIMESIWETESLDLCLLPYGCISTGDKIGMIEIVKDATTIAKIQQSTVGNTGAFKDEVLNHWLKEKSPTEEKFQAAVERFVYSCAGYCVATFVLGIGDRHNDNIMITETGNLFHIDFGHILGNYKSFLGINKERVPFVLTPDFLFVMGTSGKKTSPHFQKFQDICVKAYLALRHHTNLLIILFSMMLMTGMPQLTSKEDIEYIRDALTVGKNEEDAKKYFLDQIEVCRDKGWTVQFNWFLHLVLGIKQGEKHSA

SMILES	Ki [nM]
CCn1cc(N2Cc3nc(-c4cnc(OC)c(OC(F)F)c4)ccc3C2=O)cn1	< 100
CCOc1cc(-c2cc(C)c3c(n2)C(C)(C)N(c2cnn(CC(F)(F)F)c2)C3=O)cnc1C	< 100
COc1cc(-c2ccc3c(n2)CN(c2cnn(CCN4CCCCC4)c2)C3=O)cnc1OC	100 to 490
CCn1ccc(N2C(=O)c3ccc(-c4cnc(OC)c(OC)c4)nc3C2C)n1 (centres undefined)	< 100
COc1cncc(-c2cc(C)c3c(n2)CN(c2ccn(CC(C)(C)O)n2)C3=O)c1	< 100
Cc1cc(-c2cncc(S(=O)(=O)N(C)C)c2)nc2c1C(=O)N(c1cnn(CC(F)(F)F)c1)C21CCOC1 (centres undefined)	< 100
COc1cc(-c2cc(C)c3c(n2)CN(c2nccs2)C3=O)cnc1OC	< 100
CCCOC1c2nc(-c3cnc(OC)c(OC)c3)cc(C)c2C(=O)N1c1cnn(CC(F)(F)F)c1 (centres undefined)	< 100
COc1cncc(-c2cc(C)c3c(n2)C2(C[C@@H](O)[C@@H](O)C2)N(c2cnn(CC(F)(F)F)c2)C3=O)c1 (some centres undefined)	< 100
COc1ncc(-c2cc(C)c3c(n2)C(C)(C)N(c2cnn(CC(F)(F)F)c2)C3=O)cc1C(=O)NCC(C)(C)O	< 100
COc1cc(-c2cc(C)c3c(n2)CN(c2cccc(C4(C#N)CC4)c2)C3=O)cnc1OC	< 100
COc1cncc(-c2cc(C)c3c(n2)C(C)N(c2ccn(C)n2)C3=O)c1 (centres undefined)	< 100
CCn1ccc(N2Cc3nc(-c4cnc(OC)c(OCC(F)F)c4)cc(C)c3C2=O)n1	< 100
COc1cc(-c2cc(C)c3c(n2)CN(c2cncc(C#N)c2)C3=O)cnc1OC	< 100
COc1cncc(-c2cc(C)c3c(n2)CN(c2ccn(CC(F)(F)F)n2)C3=O)c1	< 100
CCC1(OC)c2nc(-c3cnc(OC)c(OC)c3)cc(C)c2C(=O)N1c1cnn(CC(F)(F)F)c1 (centres undefined)	< 100
COCCOc1ccc(N2Cc3nc(-c4cnc(OC)c(OC)c4)ccc3C2=O)cn1	< 100
Cc1cc(-c2cncc(O)c2)nc2c1C(=O)N(c1cnn(CC(F)(F)F)c1)C2	< 100
COc1cc(-c2ccc3c(n2)C(C)N(c2ccn(C[C@H](C)O)n2)C3=O)cnc1OC (some centres undefined)	< 100
CCn1ccc(N2Cc3nc(-c4cncc(OC(F)F)c4)cc(C)c3C2=O)n1	< 100
COCCOC1c2nc(-c3cnc(OC)c(OC)c3)ccc2C(=O)N1c1cnn(CC(F)(F)F)c1 (centres undefined)	< 100
Cc1cc(-c2cncc(S(=O)(=O)N(C)C)c2)nc2c1C(=O)N(c1cnn(CC(F)(F)F)c1)C2(C)C	< 100
COc1cc(-c2ccc3c(n2)CN(c2ccn[nH]2)C3=O)cnc1OC	< 100
COc1cncc(-c2cc(C)c3c(n2)[C@@H](OC)N(c2cnn(CC(F)(F)F)c2)C3=O)c1	< 100

SMILES	Ki [nM]
Cc1cc(-c2cncc(OC(F)F)c2)nc2c1C(=O)N(c1cnn(CC(F)(F)F)c1)C21CC1	< 100
COc1cc(-c2ccc3c(c2)CN(c2cnn(CC4COc5ccccc5O4)c2)C3=O)cnc1OC (centres undefined)	100 to 490
COc1cc(-c2ccc3c(c2)CN(c2cccc(C(C)C#N)c2)C3=O)cnc1OC (centres undefined)	100 to 490
CCn1cc(N2C(=O)c3ccc(-c4cnc(OC)c(OC(F)F)c4)nc3[C@H]2C)cn1	< 100
COc1ncc(-c2cc(C)c3c(n2)C(C)N(c2cnn(CC(F)(F)F)c2)C3=O)cc1OC(F)F (centres undefined)	< 100
COc1cc(-c2ccc3c(n2)CN(c2ccn(CC4COCCO4)n2)C3=O)cnc1OC (centres undefined)	< 100
COc1cc(-c2ccc3c(n2)CN(c2ccc(=O)n(CC4OCCO4)c2)C3=O)cnc1OC	100 to 490
C=C(F)Cn1cc(N2Cc3nc(-c4cnc(OC)c(OC)c4)ccc3C2=O)cn1	< 100
CCOc1cc(-c2cc(C)c3c(n2)CN(c2cnn(CC)c2)C3=O)cnc1OC	< 100
Cc1cc(-c2cncc(OC(F)F)c2)nc2c1C(=O)N(c1cn[nH]c1)C2(C)C	< 100
Cc1cc(-c2cncc(OC(F)F)c2)nc2c1C(=O)N(c1cnn(CC(F)(F)F)c1)C2C (centres undefined)	< 100
COc1cc(OC)cc(-c2cc(C)c3c(n2)CN(c2cnn(CC#N)c2)C3=O)c1	< 100
COc1cc(-c2ccc3c(n2)C(C)N(c2cnn(CC(C)(C)O)c2)C3=O)cnc1OC (centres undefined)	100 to 490
CCn1ncc(N2Cc3nc(-c4cnc(OC)c(OC)c4)cc(C)c3C2=O)n1	< 100
CCOc1cncc(-c2cc(C)c3c(n2)[C@@](C)(OC)N(c2cnn(CC(F)(F)F)c2)C3=O)c1	< 100
Cc1cc(-c2cncc(C(F)(F)F)c2)nc2c1C(=O)N(c1cnn(CC#N)c1)C2	< 100
COc1cncc(-c2cc(C)c3c(n2)[C@]2(CCCO2)N(c2cnn(CC(F)(F)F)c2)C3=O)c1	100 to 490
COCCOCn1cc(N2Cc3nc(-c4cnc(OC)c(OC)c4)ccc3C2=O)cn1	< 100
COc1cncc(-c2cc(C)c3c(n2)C(C)(C)N(c2ccn([C@@H]4CCOC4)n2)C3=O)c1	100 to 490
CCOc1cc(-c2ccc3c(n2)CN(c2cnn(CC#N)c2)C3=O)cnc1OC	< 100
COc1ncc(-c2cc(C)c3c(c2)C(C)N(c2cnn(CC(F)(F)F)c2)C3=O)cc1F (centres undefined)	< 100
COCCO[C@@H]1c2nc(-c3cnc(OC)c(OC)c3)ccc2C(=O)N1c1cnn(CC(F)(F)F)c1	< 100
COc1cc(-c2cc(C)c3c(n2)[C@@H](OC)N(c2cnn(CC(F)(F)F)c2)C3=O)cnc1OC	< 100
Cc1cc(-c2ccc(N)nc2)nc2c1C(=O)N(c1cnn(CC(F)(F)F)c1)C2	< 100

SMILES	Ki [nM]
COc1cc(OC)c(-c2cc(C)c3c(n2)CN(c2cnn(CC(F)(F)F)c2)C3=O)cn1	< 100
COc1cncc(-c2cc(C)c3c(n2)C(OC)N(c2cnn(CC(F)(F)F)c2)C3=O)c1 (centres undefined)	< 100
COc1cc(-c2ccc3c(n2)CN(c2ccn(C[C@H](C)O)n2)C3=O)cnc1OC	< 100
COc1cncc(-c2cc(C)c3c(n2)CN(c2cc[nH]n2)C3=O)c1	< 100
COc1cc(-c2cc(C)c3c(n2)[C@@]2(CCCO2)N(c2cnn(CC(F)(F)F)c2)C3=O)cnc1OC	< 100
COCc1cc(N2Cc3nc(-c4cnc(OC)c(OC)c4)ccc3C2=O)nn1C[C@H](C)O	< 100
COc1cc(-c2ccc3c(n2)CN(c2cnn([C@H](C)CO)c2)C3=O)cnc1OC	< 100
COc1ncc(-c2cc(C)c3c(n2)CN(c2cnn(CC(F)(F)F)c2)C3=O)cc1OC(C)C	< 100
COc1cncc(-c2cc(C)c3c(n2)[C@H](C)N(c2cnn(CC(F)(F)F)c2)C3=O)c1	< 100
Cc1cc(-c2cncc(OCC(F)F)c2)nc2c1C(=O)N(c1cnn(CC(F)(F)F)c1)[C@@H]2C	< 100
Cc1cc(-c2cc(O)cc(OC(F)(F)F)c2)nc2c1C(=O)N(c1cnn(CC(F)(F)F)c1)C2	< 100
COc1cc(-c2cc(C)c3c(n2)CN(c2cc(O)[nH]n2)C3=O)cnc1OC	< 100
CCOc1cncc(-c2cc(C)c3c(n2)C(C)(C)N(c2cnn(COCCOC)c2)C3=O)c1	100 to 490
COc1cc(-c2cc(C)c3c(n2)CN(c2ccc(OCCCC(F)(F)F)nc2)C3=O)cnc1OC	< 100
C=CC1(O)c2nc(-c3cncc(OC)c3)cc(C)c2C(=O)N1c1cnn(CC(F)(F)F)c1 (centres undefined)	100 to 490
COc1cc(-c2cc(C)c3c(n2)C2(CCCO2)N(c2cnn(CC(F)(F)F)c2)C3=O)cnc1OC(C)C (centres undefined)	< 100
Cc1cc(-c2cnc(C)c(OCC(F)(F)F)c2)nc2c1C(=O)N(c1cnn(CC(F)(F)F)c1)C2(C)C	< 100
COc1cc(-c2cc(C)c3c(n2)CN(c2cc(C)n(Cc4ccccn4)n2)C3=O)cnc1OC	< 100
CCOc1ncc(-c2ccc3c(n2)CN(c2cnn(CC#N)c2)C3=O)cc1OC	< 100
CCn1ccc(N2Cc3nc(-c4cnc(OC)c(OC)c4)ccc3C2=O)n1	< 100
COc1cncc(-c2cc(C)c3c(n2)C(OCCO)N(c2cnn(CC(F)(F)F)c2)C3=O)c1 (centres undefined)	< 100
COc1cc(-c2cc(C)c3c(n2)C(C(C)C)N(c2cnn(CC(F)(F)F)c2)C3=O)cnc1OC (centres undefined)	< 100
COc1cc(-c2ccc3c(n2)CN(c2cnn(Cc4cccc5c4OCCCO5)c2)C3=O)cnc1OC	< 100
CCOc1cc(-c2cc(C)c3c(n2)CN(c2cnn(CC#N)c2)C3=O)cnc1OC	< 100

SMILES	Ki [nM]
COCc1cc(N2Cc3nc(-c4cnc(OC)c(OC)c4)ccc3C2=O)nn1C	< 100
Cc1cc(-c2cncc(OC(F)F)c2)nc2c1C(=O)N(c1cncc(C(C)(C)C#N)c1)C2	< 100
CCNC(=O)c1cc(-c2cc(C)c3c(n2)C(C)N(c2cnn(CC(F)(F)F)c2)C3=O)cnc1OC (centres undefined)	< 100
COc1cncc(-c2cc(C)c3c(c2)C(C)N(c2cnn(CC(F)(F)F)c2)C3=O)c1 (centres undefined)	< 100
COc1cc(-c2ccc3c(n2)CN(c2cnn(CC(F)(F)F)c2)C3=O)cnc1OC(F)F	100 to 490
COc1cc(-c2cc(Cl)c3c(c2)CN(c2cnn(CC#N)c2)C3=O)cnc1OC	< 100
Cc1cc(-c2cncc(OC(F)F)c2)nc2c1C(=O)N(c1cnn(C[C@H](C)O)c1)[C@H]2C	< 100
COc1ncc(-c2ccc3c(n2)C(C)N(c2cnn(CC(F)(F)F)c2)C3=O)cc1OC(F)F (centres undefined)	< 100
COCCOCCOc1cc(-c2cc(C)c3c(n2)CN(c2cnn(CC(F)(F)F)c2)C3=O)cnc1OC	< 100
COc1cc(-c2ccc3c(n2)CN(c2cnn(CCN4CCN(C(C)=O)CC4)c2)C3=O)cnc1OC	100 to 490
COc1cc(-c2ccc3c(c2)CN(c2cnn(CC#N)c2)C3=O)cnc1Cl	100 to 490
COc1cncc(-c2cc(C)c3c(n2)C2(CCNCC2)N(c2cnn(CC(F)(F)F)c2)C3=O)c1	100 to 490
COc1cc(-c2ccc3c(n2)[C@H](C)N(c2ccn(C[C@H](C)O)n2)C3=O)cnc1OC	< 100
Cc1cc(-c2cncc(OCC(F)F)c2)nc2c1C(=O)N(c1ccn([C@H]3CCOC3)n1)C2	< 100
COCCOc1cc(-c2cc(C)c3c(n2)CN(c2cnn(CC(F)(F)F)c2)C3=O)cnc1OC	< 100
CCn1ccc(N2C(=O)c3c(C)cc(-c4cncc(OC(F)F)c4)nc3[C@H]2C)n1	< 100
COc1cc(-c2ccc3c(n2)CN(c2ccc(N4CCN(CCO)CC4)nc2)C3=O)cnc1OC	< 100
CCn1cnc(N2Cc3cc(-c4cnc(OC)c(OC)c4)ccc3C2=O)n1	< 100
COc1cc(-c2cc(C)c3c(n2)[C@@]2(CCCO2)N(c2cnn(CC(F)(F)F)c2)C3=O)cnc1OC(C)C	< 100
COc1cc(-c2ccc3c(c2)CN(c2cncc(C)c2)C3=O)cnc1OC	< 100
COc1cc(-c2ccc3c(n2)[C@@H](C)N(c2ccn(CC(F)(F)F)n2)C3=O)cnc1OC	< 100
COCCNC(=O)c1cncc(-c2cc(C)c3c(n2)C(C)(C)N(c2cnn(CC(F)(F)F)c2)C3=O)c1	< 100
